In ChEMBL document CHEMBL1150191, “Isolation of Eupalmerin, a Minor Cembranoid Diterpene from the Caribbean Gorgonian Eunicea mammosa” (J Nat Prod, 1991):
Converted amounts (≈) assume the structure as drawn.

Assay: Cytotoxicity against CHOK1 cells
Assay type: cell-based, Cricetulus griseus
Conditions: chinese hamster, CHO-K1 cells; read-out: ED50 (the source's name)

C=C1C(=O)O[C@H]2[C@H](O)[C@@H](C)CCC/C(C)=C/CC[C@@]3(C)O[C@H]3C[C@@H]12 [EUPALMERIN] gave a CC50 of 5.46 mg/L (≈ 16.3 µM).
